The values that follow come from patent publication US8153791B2, “Substituted pyrimidinyl oxime kinase inhibitors” (Janssen Pharmaceutica N.V., priority 2005, dated 2012).

In experiment [1] the test system is HeLa cervical adenocarcinoma. Kind of experiment: In vitro cell proliferation inhibition, HeLa. Format: cell-based. The note with it: Homo sapiens, read-out: HeLa IC50. From the text: (§1) The ability of a test compound to inhibit unregulated in vitro cell proliferation may be determined by measuring incorporation of ^14C-labelled thymidine into newly synthesized DNA within cell lines derived from carcinomas originating from several tissues. Accordingly, the effect of a test compound on proliferation of cells with a variety of phenotypes may be determined.
(§2) Carcinoma cell lines used include the HeLa cervical adenocarcinoma from the American Type Culture Collection (ATCC Cat. #CCL2), SK-OV-3 ovarian carcinoma (ATCC Cat. #HTB-77), MCF-7 breast carcinoma (ATCC Cat. #HTB-22), BT474 breast carcinoma (ATCC Cat. #HTB-20), SKBR3 breast carcinoma (ATCC Cat. #HTB-30), A431 epidermoid carcinoma (ATCC Cat. #CRL-1555) and NCI-N87 gastric carcinoma (ATCC Cat. #CRL-5822).
(§3) The carcinoma cells are trypsinized and counted. The cells (3000-8000 count) are added to each well of a 96-well CytoStar tissue culture treated scintillating microplate (Amersham #RPNQ0160) in complete medium (100 μL) and the plate is then incubated in complete medium for 24 hrs at 37° C. in an inert atmosphere containing 5% CO2.
(§4) Test compound (1 μL) in 100% DMSO is added to the plate test-wells with DMSO only added to control-wells. The plate is incubated in complete medium for a second 24 hr period at 37° C. in an atmosphere containing 5% CO2.
(§5) An aliquot of a solution of Methyl ^14C-thymidine (56 mC/mmol) (NEN #NEC568 or Amersham #CFA532) and complete medium (20 μL to provide 0.2 μCi/well) is then added to each well and the plate is incubated for a third 24 hr period at 37° C. in an atmosphere containing 5% CO2.
(§6) The plate contents are then discarded, the plate is washed twice with PBS (200 μL) and then PBS (200 μL) is added to each well. The plate is sealed and the degree of methyl ^14C-thymidine incorporation is quantified on a Packard Top Count.
(§7) Cell proliferation of the Hela cell line was measured using the ATP-Lite method as described in the ATP Lite Kit (Perkin-Elmer Kit Number 6106941) or the C^14 method as described above. Cell proliferation of the other cell lines was measured using the C^14 method.
(§8) The term “NT” means that the compound indicated was not tested in a particular cell line. The lack of such testing is not intended to imply a belief that the compound is not otherwise active in a particular cell line or any other cell line not tested.

Experiment [2] has as its system NCI-N87 gastric carcinoma. The experiment can be described thus: In vitro cell proliferation inhibition, NCI-N87. To be noted: Homo sapiens. Format: cell-based.
Excerpt: as §1, §2, §3, §4, §5, §6, §7, §8

In a further experiment the test system is MCF-7 breast carcinoma. Kind of experiment: In vitro cell proliferation inhibition, MCF-7. The note with it: Homo sapiens, MCF7; MCF-7 cells, 14C-thymidine incorporation. Format: cell-based.
Excerpt: as §1, §2, §3, §4, §5, §6, §7, §8

The subject of experiment [3] is SK-OV-3 ovarian carcinoma. Kind of experiment: In vitro cell proliferation inhibition, SK-OV-3. The note with it: Homo sapiens; SK-OV-3 cells, 14C-thymidine incorporation. Format: cell-based.
Excerpt: as §1, §2, §3, §4, §5, §6, §7, §8

The subject of experiment [4] is A431 epidermoid carcinoma. Kind of experiment: In vitro cell proliferation inhibition, A431. Format: cell-based. The note with it: Homo sapiens.
Excerpt: as §1, §2, §3, §4, §5, §6, §7, §8

The next experiment deals with SKBR3 breast carcinoma. Kind of experiment: In vitro cell proliferation inhibition, SKBR3. Format: cell-based. The note with it: Homo sapiens.
Excerpt: as §1, §2, §3, §4, §5, §6, §7, §8

The target of the next experiment is T1, HER-2 (Homo sapiens, UniProt P04626).
T1 construct: purchased Proqinase (Freiburg, Germany)
The experiment can be described thus: HER-2 Kinase Assay.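 Also: HER2 kinase reaction read by scintillation counting, inhibition scaled between maximum and minimum signals set on each plate, IC50 from inhibition against log concentration.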 Format: biochemical. To be noted: read-out: HER2 IC50.

The next experiment concerns BT474 breast carcinoma. The experiment can be described thus: In vitro cell proliferation inhibition, BT474. To be noted: Homo sapiens. Format: cell-based.
Excerpt: as §1, §2, §3, §4, §5, §6, §7, §8

Another experiment has as its target T2, EGFR (Homo sapiens, UniProt P00533).
T2 construct: The intracellular portion of EGFR started at nucleotide 2189 (corresponding to amino acid 667) and ended at the termination codon; made in house; host or cells: Sf9 insect cells (baculovirus)
The experiment can be described thus: EGFR Kinase Assay.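 Also: recombinant GST-tagged EGFR expressed in Sf9 cells, phosphorylating biotinylated polyGluTyr with γ-33P ATP on Streptavidin Flashplates, 1 h at 30 °C, scintillation counting, inhibition relative to plate maximum and minimum signals.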 Format: biochemical.

Where [5] appears, read: HeLa cell line, ATP-Lite method or C14 thymidine method.
Where [6] appears, read: NCI-N87, N87 cells, 14C-thymidine incorporation, read-out: IC50 N87.
The mark [7] stands for this setting: A-431, A431 cells, 14C-thymidine incorporation, read-out: IC50 A431.
[8] abbreviates: SK-BR-3, SKBR3 cells, 14C-thymidine incorporation, read-out: IC50 SKBR3.
[9] abbreviates: BT-474, BT474 cells, 14C-thymidine incorporation, read-out: IC50 BT474.

Where two headings read alike, the source gives them in different places.

T2 sequence (P00533 669-1210 limits assumed): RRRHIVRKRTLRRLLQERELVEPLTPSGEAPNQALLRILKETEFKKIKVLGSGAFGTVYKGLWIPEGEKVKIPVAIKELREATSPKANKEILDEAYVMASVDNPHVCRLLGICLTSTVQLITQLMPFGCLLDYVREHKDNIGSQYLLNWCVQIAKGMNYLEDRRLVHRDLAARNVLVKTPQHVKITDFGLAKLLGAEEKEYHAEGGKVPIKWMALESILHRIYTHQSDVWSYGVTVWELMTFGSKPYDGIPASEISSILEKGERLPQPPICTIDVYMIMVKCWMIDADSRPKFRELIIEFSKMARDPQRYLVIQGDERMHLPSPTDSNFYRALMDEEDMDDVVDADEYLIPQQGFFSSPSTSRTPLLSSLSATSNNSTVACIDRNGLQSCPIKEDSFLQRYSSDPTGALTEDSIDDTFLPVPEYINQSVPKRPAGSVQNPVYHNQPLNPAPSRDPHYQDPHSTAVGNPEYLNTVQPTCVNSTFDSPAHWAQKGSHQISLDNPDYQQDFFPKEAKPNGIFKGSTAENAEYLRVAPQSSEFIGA
T1 sequence (P04626 679-1255): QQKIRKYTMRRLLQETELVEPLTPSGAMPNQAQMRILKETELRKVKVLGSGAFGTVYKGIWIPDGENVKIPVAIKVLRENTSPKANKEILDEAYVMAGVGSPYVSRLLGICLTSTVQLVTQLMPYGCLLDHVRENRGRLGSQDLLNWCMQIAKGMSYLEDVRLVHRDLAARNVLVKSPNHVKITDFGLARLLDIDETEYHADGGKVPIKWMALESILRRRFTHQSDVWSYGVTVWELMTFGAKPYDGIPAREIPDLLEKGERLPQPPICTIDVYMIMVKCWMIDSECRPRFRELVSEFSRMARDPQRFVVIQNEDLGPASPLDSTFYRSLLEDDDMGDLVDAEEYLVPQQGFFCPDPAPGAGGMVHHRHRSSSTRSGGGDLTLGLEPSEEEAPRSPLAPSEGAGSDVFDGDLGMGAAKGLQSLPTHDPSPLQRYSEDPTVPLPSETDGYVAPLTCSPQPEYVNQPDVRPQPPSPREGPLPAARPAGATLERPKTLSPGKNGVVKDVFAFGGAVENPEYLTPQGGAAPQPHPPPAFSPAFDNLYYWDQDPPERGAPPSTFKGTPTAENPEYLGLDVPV

On to `CO/N=C/c1c(N)ncnc1Nc1ccc(OCc2ccccc2)c(Cl)c1` [Cpd 9, (5E)-4-amino-6-(4-benzyloxy-3-chloro-phenylamino)-pyrimidine-5-carbaldehyde O-methyl-oxime], for which the 50% inhibitory concentration (IC50) in [1] (setting [5]) was 35000 nM; in [2] (setting [6]), 700 nM; in the experiment on MCF-7 breast carcinoma it was 86600 nM; in [3], 100000 nM.
Regarding `Nc1ncnc(Nc2ccc3c(cnn3Cc3cccc(F)c3)c2)c1/C=N/OCCN1CCOCC1` [Cpd 19, (5E)-4-amino-6-[1-(3-fluoro-benzyl)-1H-indazol-5-ylamino]-pyrimidine-5-carbaldehyde O-(2-morpholin-4-yl-ethyl)-oxime], the IC50 came to 10000 nM in [1] (setting [5]); 40 nM in experiment [2] (setting [6]); 1100 nM in experiment [4] (setting [7]); 100 nM in the experiment with SKBR3 breast carcinoma (setting [8]); 50 nM on HER-2; 2500 nM in the experiment on MCF-7 breast carcinoma. For the same compound, the IC50 with BT474 breast carcinoma (setting [9]) turned out to be 30 nM; on EGFR it was 20 nM; in experiment [3], 19100 nM.
`CO/N=C/c1c(N)ncnc1Nc1ccc2c(ccn2Cc2cccc(F)c2)c1` [Cpd 34, (5E)-4-amino-6-[1-(3-fluoro-benzyl)-1H-indol-5-ylamino]-pyrimidine-5-carbaldehyde O-methyl-oxime]: the IC50 came out at 3500 nM in experiment [1] (setting [5]), 200 nM in experiment [2] (setting [6]), 3800 nM in the experiment on MCF-7 breast carcinoma and 3200 nM in experiment [3].
Regarding `Nc1ncnc(Nc2ccc3c(cnn3Cc3cccc(F)c3)c2)c1/C=N/OCc1ccccc1` [Cpd 46, (5E)-4-amino-6-[1-(3-fluoro-benzyl)-1H-indazol-5-ylamino]-pyrimidine-5-carbaldehyde O-benzyl-oxime], the IC50 is 100000 nM in [1] (setting [5]); 10000 nM in [2] (setting [6]); 100000 nM in experiment [4] (setting [7]); 300 nM with SKBR3 breast carcinoma (setting [8]); 100 nM in the experiment on BT474 breast carcinoma (setting [9]).
`CO/N=C/c1c(N)ncnc1Nc1ccc2[nH]c(Cc3cccc(F)c3)nc2c1` [Cpd 60, (5E)-4-amino-6-[2-(3-fluoro-benzyl)-1H-benzoimidazol-5-ylamino]-pyrimidine-5-carbaldehyde O-methyl-oxime]: the concentration for half-maximal inhibition (IC50) came out at 10000 nM in experiment [1] (setting [5]), 600 nM in [2] (setting [6]), 10000 nM in the experiment with MCF-7 breast carcinoma and 10000 nM in experiment [3].
Consider `CN(C)CCCO/N=C/c1c(N)ncnc1Nc1ccc2c(cnn2Cc2cccc(F)c2)c1` [Cpd 70, (5E)-4-amino-6-[1-(3-fluoro-benzyl)-1H-indazol-5-ylamino]-pyrimidine-5-carbaldehyde O-(3-dimethylamino-propyl)-oxime], for which the IC50 in [1] (HeLa) was determined as 10000 nM; in experiment [2] (NCI-N87, read-out: IC50 N87) it was 300 nM; in experiment [4] (A-431, read-out: IC50 A431) it was 14200 nM; in the experiment with SKBR3 breast carcinoma (SK-BR-3, read-out: IC50 SKBR3), 400 nM; at HER-2 it was 20 nM; in the experiment with BT474 breast carcinoma (BT-474, read-out: IC50 BT474), 100 nM. The compound further had an IC50 at EGFR of 20 nM.
Regarding `Nc1ncnc(Nc2ccc(OCc3cccc(F)c3)c(Cl)c2)c1/C=N/OCCCO` [Cpd 75, (5E)-4-amino-6-[3-chloro-4-(3-fluoro-benzyloxy)-phenylamino]-pyrimidine-5-carbaldehyde O-(3-hydroxy-propyl)-oxime], the half-inhibitory concentration (IC50) in [1] (setting [5]) is 40100 nM; in [2] (setting [6]), 1 nM; on HER-2, 9 nM; with MCF-7 breast carcinoma, 30700 nM; against EGFR it was 8 nM; in [3], 10000 nM.
For `Nc1ncnc(Nc2ccc(OCc3ccccc3)c(Cl)c2)c1/C=N/OCCCO` [Cpd 76, (5E)-4-amino-6-(4-benzyloxy-3-chloro-phenylamino)-pyrimidine-5-carbaldehyde O-(3-hydroxy-propyl)-oxime], the IC50 in experiment [1] (setting [5]) turned out to be 59400 nM; in experiment [2] (setting [6]), 300 nM; in experiment [4] (setting [7]) it was 1800 nM; in the experiment on SKBR3 breast carcinoma (setting [8]), 300 nM; at HER-2, 30 nM; in the experiment with MCF-7 breast carcinoma, 10000 nM. For the same compound, the IC50 came to 200 nM in the experiment on BT474 breast carcinoma (setting [9]), 10 nM against EGFR and 24100 nM in [3].
`Nc1ncnc(Nc2ccc3c(cnn3Cc3cccc(F)c3)c2)c1/C=N/OCCCN1CCOCC1` [Cpd 87, (5E)-4-amino-6-[1-(3-fluoro-benzyl)-1H-indazol-5-ylamino]-pyrimidine-5-carbaldehyde O-(3-morpholin-4-yl-propyl)-oxime]: the IC50 in experiment [1] (setting [5]) amounted to 4900 nM; in experiment [2] (setting [6]), 300 nM; in [4] (setting [7]), 3600 nM; in the experiment with SKBR3 breast carcinoma (setting [8]), 500 nM; on HER-2, 70 nM; in the experiment with BT474 breast carcinoma (setting [9]) it was 300 nM. Further, the IC50 at EGFR worked out at 30 nM.
`Nc1ncnc(Nc2ccc3c(ccn3Cc3cccc(F)c3)c2)c1/C=N/OCCCO` [Cpd 91, (5E)-4-amino-6-[1-(3-fluoro-benzyl)-1H-indol-5-ylamino]-pyrimidine-5-carbaldehyde O-(3-hydroxy-propyl)-oxime]: the concentration for half-maximal inhibition (IC50) in [1] (setting [5]) was 9400 nM; in [2] (setting [6]) it was 200 nM; in experiment [4] (setting [7]), 1300 nM; with SKBR3 breast carcinoma (setting [8]), 300 nM; on HER-2, 30 nM; in the experiment on MCF-7 breast carcinoma, 10000 nM. Also, the IC50 in the experiment on BT474 breast carcinoma (setting [9]) is 200 nM; against EGFR, 7 nM; in [3], 5400 nM.
`Nc1ncnc(Nc2ccc3c(cnn3Cc3cccc(F)c3)c2)c1/C=N/OCCCN1CCCCC1` [Cpd 92, (5E)-4-amino-6-[1-(3-fluoro-benzyl)-1H-indazol-5-ylamino]-pyrimidine-5-carbaldehyde O-(3-piperidin-1-yl-propyl)-oxime]: the IC50 came to 4700 nM in experiment [1] (setting [5]); 200 nM in experiment [2] (setting [6]); 3100 nM in experiment [4] (setting [7]); 400 nM in the experiment on SKBR3 breast carcinoma (setting [8]); 30 nM at HER-2; 200 nM in the experiment with BT474 breast carcinoma (setting [9]). Further, the concentration for half-maximal inhibition (IC50) on EGFR came to 50 nM.
For `Nc1ncnc(Nc2ccc(OCc3cc(F)cc(F)c3)c(Cl)c2)c1/C=N/OCCN1CCOCC1` [Cpd 99, (5E)-4-amino-6-[3-chloro-4-(3,5-difluoro-benzyloxy)-phenylamino]-pyrimidine-5-carbaldehyde O-(2-morpholin-4-yl-ethyl)-oxime], the 50% inhibitory concentration (IC50) worked out at 100000 nM in experiment [1] (setting [5]); 100000 nM in experiment [2] (setting [6]); 100000 nM in [4] (setting [7]); 100000 nM in the experiment with SKBR3 breast carcinoma (setting [8]); 200 nM on HER-2; 10000 nM with BT474 breast carcinoma (setting [9]). Further, the IC50 against EGFR was determined as 70 nM.
In the case of `Nc1ncnc(Nc2ccc3c(ccn3Cc3cccc(F)c3)c2)c1/C=N/OCCN1CCCCC1` [Cpd 102, (5E)-4-amino-6-[1-(3-fluoro-benzyl)-1H-indol-5-ylamino]-pyrimidine-5-carbaldehyde O-(2-piperidin-1-yl-ethyl)-oxime], the IC50 came out at 1400 nM in [1] (setting [5]); 200 nM in [2] (setting [6]); 1 nM in [4] (setting [7]); 700 nM with SKBR3 breast carcinoma (setting [8]); 140 nM on HER-2; 900 nM in the experiment with BT474 breast carcinoma (setting [9]). This compound yielded an IC50 against EGFR of 40 nM.
Regarding `Nc1ncnc(Nc2ccc(F)c(Cl)c2)c1/C=N/OCCN1CCOCC1` [Cpd 108], the IC50 amounted to 10000 nM in experiment [1] (setting [5]), 1100 nM at HER-2 and 200 nM at EGFR.
`N#Cc1c(N)ncnc1Nc1ccc(OCc2ccccc2)c(Cl)c1` [Cpd 118, 4-amino-6-(4-benzyloxy-3-chloro-phenylamino)-pyrimidine-5-carbonitrile]: the IC50 in [1] (setting [5]) stood at 100000 nM; in experiment [2] (setting [6]), 100000 nM; in experiment [4] (setting [7]), 100000 nM; in the experiment with SKBR3 breast carcinoma (setting [8]), 100000 nM; on HER-2, 100 nM; with BT474 breast carcinoma (setting [9]), 100000 nM. In addition, the 50% inhibitory concentration (IC50) at EGFR stood at 30 nM.
